Assay: solvent given as SMILES

O=C(O)c1ccccc1
Details | solvation free energy, 298 K [kcal/mol]
in C1CCOC1 | -9.93
in C1COCCO1 | -9.81
in C=CCCCCCCC=C | -6.26
in C=CCCCCCCCCCCCCCC | -5.84
in CC(=O)N(C)C | -10.1
in CC(C)=O | -9.63
in CC(C)CCO | -9.41
in CC(C)CO | -9.4
in CC(C)O | -9.63
in CCC(C)O | -9.41
in CCCC(C)O | -9.52
in CCCCCCCCCCO | -9.21
in CCCCCCCO | -9.27
in CCCCCCO | -9.39
in CCCCCO | -9.44
in CCCCO | -9.58
in CCCCOC(C)=O | -9.29
in CCCCOCCCC | -8.8
in CCCO | -9.6
in CCO | -9.71
in CCOC(C)=O | -9.43
in CCOCC | -9.45
in CN(C)C=O | -10.1
in CNC=O | -10
in CO | -9.81
in O | -6.96

[H][H]
Details | solvation free energy, 298 K [kcal/mol]
in CCCCCCCCO | 1.76
in O | 2.35

C=CCC=CC
Details | solvation free energy, 298 K [kcal/mol]
in C=CCCCCCCCCCCCCCC | -3.46
in O | 1.09

c1ccc2c(c1)[nH]c1ccccc12
Details | solvation free energy, 298 K [kcal/mol]
in CC(=O)N(C)C | -14
in CN1CCCC1=O | -14.5
in O | -7.18

CCCCCCCCCCCCCCCCCC
Details | solvation free energy, 298 K [kcal/mol]
in CC(=O)N(C)C | -12.1
in CCCCCCCCC=CCCCCCCCC(=O)OCC(COC(=O)CCCCCCCC=CCCCCCCCC)OC(=O)CCCCCCCC=CCCCCCCCC | -12.4
in CCCCOC(C)=O | -11.9
in CCO | -10.3
in O | 4.15

CCCC(=O)CC(=O)CCC
Details | solvation free energy, 298 K [kcal/mol]
in O | -4.33

COC(=O)C(C)(C)C
Details | solvation free energy, 298 K [kcal/mol]
in O | -2.4

O=C(O)c1ccc(O)cc1
Details | solvation free energy, 298 K [kcal/mol]
in C1CCOC1 | -11.4
in C1COCCO1 | -11.2
in CC(=O)N(C)C | -11.8
in CC(C)(C)O | -11.2
in CC(C)=O | -11.5
in CC(C)CO | -11.3
in CC(C)O | -11.5
in CCC(C)O | -11.2
in CCCCCCCCO | -11
in CCCCCCO | -11.2
in CCCCCO | -11.3
in CCCCO | -11.4
in CCCCOC(C)=O | -10.8
in CCCCOCCCC | -10.2
in CCCO | -11.5
in CCO | -11.7
in CCOC(C)=O | -11
in CCOCC | -10.8
in CN(C)C=O | -11.8
in CNC=O | -11.7
in O | -9.25

CCCCCCCCCCC
Details | solvation free energy, 298 K [kcal/mol]
in CCCCCC | -7.56
in CN(C)C=O | -5.57
in COCCO | -5.15

CC1=C2CC3CCC(C)C2(CC1)C3(C)C (centres undefined)
Details | solvation free energy, 298 K [kcal/mol]
in O | 0.78

CCCCCCCOC(C)=O
Details | solvation free energy, 298 K [kcal/mol]
in NC=O | -4.84
in O | -2.07

c1ccc(N=Nc2ccccc2)cc1
Details | solvation free energy, 298 K [kcal/mol]
in CCCCCCCCC=CCCCCCCCC(=O)OCC(COC(=O)CCCCCCCC=CCCCCCCCC)OC(=O)CCCCCCCC=CCCCCCCCC | -11.2
in O | -4.82

CN1CCN(C)CC1
Details | solvation free energy, 298 K [kcal/mol]
in O | -7.58

Cc1cccnc1
Details | solvation free energy, 298 K [kcal/mol]
in CC(C)(C)O | -5.83
in CC(C)CC(C)(C)C | -4.97
in CCCCO | -6.41
in CCCO | -6.34
in O | -4.8

Cc1c(C(=O)O)cc([N+](=O)[O-])cc1[N+](=O)[O-]
Details | solvation free energy, 298 K [kcal/mol]
in C1CCOC1 | -17.5
in C1COCCO1 | -17.5
in CC(C)(C)O | -16
in CC(C)CCO | -15.8
in CC(C)CO | -15.7
in CC(C)O | -16.2
in CCC(C)O | -16.1
in CCCC(C)O | -15.9
in CCCCCCCCCCO | -15.3
in CCCCCCCCO | -15.6
in CCCCCCCO | -15.9
in CCCCCCO | -15.8
in CCCCCO | -16
in CCCCO | -16.1
in CCCCOC(C)=O | -16.2
in CCCO | -16.2
in CCOC(C)=O | -16.4
in COC(C)=O | -16.7
in O | -13.6
